This note sets out measurements from PMC9919579 (Molecules, 2023).

The structures appear in SMILES notation.

The assay deals with T1, vaccinia virus TOP1 (vaccinia DNA Topoisomerase I) (Vaccinia virus WR, UniProt P68698).
T1 construct: gene OPG111; TOP1 described as 314 amino acids; amine-coupled to GLH chip
The experiment in a line: biochemical. The assay is classed as binding.
The Kd is a measure of binding affinity in units of concentration. A higher Kd goes with lower affinity. Turning to `CC1COc2c(N3CCN(C)CC3)c(F)cc3c(=O)c(C(=O)O)cn1c23` (stereo not shown) [Ofloxacin], the dissociation constant Kd was determined as 5.46 µM.

`O=C(/C=C/c1ccc(O)c(O)c1)O[C@H](Cc1ccc(O)c(O)c1)C(=O)O` [Rosmarinic acid] had a Kd of 2.16 µM.

Compound `C[C@@H]1O[C@@H](Oc2c(-c3cc(O)c(O)c(O)c3)oc3cc(O)cc(O)c3c2=O)[C@H](O)[C@H](O)[C@H]1O` [Myricitrin] had a Kd of 3.54 µM.

Compound `C[C@@H]1O[C@@H](Oc2c(-c3ccc(O)c(O)c3)oc3cc(O)cc(O)c3c2=O)[C@H](O)[C@H](O)[C@H]1O` [Quercitrin] returned a Kd of 4.77 µM.
